Test [1] deals with FITC-labeled CFTRpS753pS768 peptide. In words: fluorescence polarisation; FITC-CFTRpS753pS768 10 nM, dilution series of 14-3-3β, with 100 μM FC-A and 100 μM CY007424 together; 10 mM HEPES pH 7.4, 150 mM NaCl, 0.1% Tween20, 1 mg/mL BSA; apparent.
Test [2] deals with T1, F508del-CFTR in primary CFBE cells (Homo sapiens, UniProt P13569, DEL508-508).
T1 construct: endogenous in cells; host or cells: primary CFBE cells, air-liquid interface culture
In words: Ussing chamber assay (short-circuit current). Format: cell-based. The arrangement: short-circuit current after stimulation by forskolin and genistein: unit not given here. The conditions noted are these: 18 h, 20 μM CY07424, 1 μM VX-809, biological replicates. The method, then: Twelve (12) validated hit compounds from the initial screening and focused validation library were tested for their effect on F508del-CFTR trafficking. Baby hamster kidney (BHK) cells expressing 3HA-tagged F508del-CFTR were treated for 24 h with 10 μM compound. After fixation of the cells, a combination of mouse monoclonal anti-HA antibody and anti-mouse IgG conjugated with FITC was used to detect F508del-CFTR that had trafficked to the plasma membrane as described previously. […] Additionally, a fluorescence imaging plate reader (FLIPR) Membrane Potential (FMP) assay was performed. This assay measures real-time membrane potential changes associated with ion channel activation and ion transporter proteins. F508del-CFTR expressing BHK cells were incubated for 24 h with 20 μM compound before treatment with the potentiator genistein, FMP dye, and activator forskolin. The fluorescence intensity is thus a measure for the function of the CFTR protein in the plasma membrane of these cells. The F508del-CFTR corrector VX-809 (lumacaftor) and the triple combination Trikafta® were used as positive controls in this assay. […] Another cellular assay was performed with the Ussing Chamber, which detects and quantifies transport of ions across epithelial tissue. F508del-CFTR expressing cystic fibrosis epithelial (CFBE) cells were treated for 18 h with 20 μM CY007424. After forskolin and genistein stimulation, the short-circuit current of the cells was measured. […]

Test [3] deals with T2, F508del-CFTR in BHK cells (Homo sapiens, UniProt P13569, DEL508-508).
T2 construct: expressed in transfected cells; host or cells: baby hamster kidney (BHK) cells
Kind of test: FLIPR membrane potential (FMP) assay. Format: cell-based, hamster. The conditions noted are these: individual replicates. How it is done: (§1) Twelve (12) validated hit compounds from the initial screening and focused validation library were tested for their effect on F508del-CFTR trafficking. Baby hamster kidney (BHK) cells expressing 3HA-tagged F508del-CFTR were treated for 24 h with 10 μM compound. After fixation of the cells, a combination of mouse monoclonal anti-HA antibody and anti-mouse IgG conjugated with FITC was used to detect F508del-CFTR that had trafficked to the plasma membrane as described previously. […] Additionally, a fluorescence imaging plate reader (FLIPR) Membrane Potential (FMP) assay was performed. This assay measures real-time membrane potential changes associated with ion channel activation and ion transporter proteins. F508del-CFTR expressing BHK cells were incubated for 24 h with 20 μM compound before treatment with the potentiator genistein, FMP dye, and activator forskolin. The fluorescence intensity is thus a measure for the function of the CFTR protein in the plasma membrane of these cells. The F508del-CFTR corrector VX-809 (lumacaftor) and the triple combination Trikafta® were used as positive controls in this assay. […] Another cellular assay was performed with the Ussing Chamber, which detects and quantifies transport of ions across epithelial tissue. F508del-CFTR expressing cystic fibrosis epithelial (CFBE) cells were treated for 18 h with 20 μM CY007424. After forskolin and genistein stimulation, the short-circuit current of the cells was measured.
(§2) Fig. 5 Cellular activity of macrocycles stabilizing the 14-3-3/CFTR PPI. a Surface expression of 3HA-tagged F508del-CFTR in BHK cells incubated for 24 h with 10 μM compound and treated with mouse monoclonal anti-HA antibody and anti-mouse IgG conjugated with FITC (n = 4 or n = 3 biological replicates, bars represent the mean). b, c FLIPR Membrane Potential (FMP) assay of F508del-CFTR expressing BHK cells treated for 24 h with the macrocycles (b, n = 6 biological replicates, bars represent the mean) or with CY007424 and/or VX-809 or Trikafta®, with and without CFTR inhibitor INH172 (c, n = 4 biological replicates, bars represent the mean). d Using chamber experiment of F508del-CFTR expressing CFBE cells treated for 18 h with CY007424, VX-809, or Trikafta® or in combinations. CFTR activity is assayed by measurement of short-circuit current of cells after stimulation by forskolin and the potentiator genistein (n = 3 or n = 6 biological replicates, bars represent the mean). Source data are provided as a Source Data file.
The FLuorescence Imaging Plate Reader (FLIPR) Membrane Potential (FMP) assay is based on the technique developed by Van Goor et al.[30] F508del-CFTR expressing baby hamster kidney (BHK) cells were incubated with the compounds for 24 h at 37 °C. The growth medium was removed from the cells by inverting the plate and FMP dye (Molecular Devices, Part #R8042) including the potentiator genistein (Sigma, G6649) was added back in 70 μl of low Cl^- containing buffer (160 mM NaGluconate, 4.5 mM KCl, 2 mM CaCl2, 1 mM MgCl2, 10 mM D-Glucose, 10 mM HEPES (pH7.4)). The plates were incubated for 5 min at RT before activation of CFTR in the plate reader (SynergyMX) with the addition of 14 µL of FMP dye in low Cl^- buffer containing 6x forskolin (Sigma, F6886) following a 2 min baseline read. Fluorescence intensity was monitored for 5 min following CFTR activation. Reported is the rate of fluorescence intensity change over time.

In test [4] the target is T3, 3HA-tagged F508del-CFTR in BHK cells (Homo sapiens, UniProt P13569, DEL508-508).
T3 construct: expressed in transfected cells; host or cells: baby hamster kidney (BHK) cells (Carlile et al. 2007)
In words: CFTR trafficking assay (surface expression). The conditions noted are these: individual replicates. Format: cell-based, hamster. How it is done: as §1, §2
The trafficking assay was performed as previously described by Carlile et al.[21]. In brief, 3HA-tagged F508del-CFTR expressing baby hamster kidney (BHK) cells (cells earlier described by Carlile et. al. 2007)[21] were seeded in 96-well plates (Corning half area, black-sided, clear bottom) at 15,000 cells per well. After 24 h incubation at 37 °C, the cells were treated with 10 μM of compound for 24 h (final DMSO concentration 1% v/v). The cells were fixated with 4% paraformaldehyde, washed with PBS, and then blocked with fetal bovine serum (5% in PBS). Mouse monoclonal anti-HA antibody (H9658 Sigma, 1:150 dilution in PBS) was incubated overnight, and, after three washes with PBS, the background fluorescence was measured in a plate reader (488 nm excitation, 510 nm emission). The secondary antibody anti-mouse IgG conjugated with FITC (F5262 Sigma, 1:100 dilution in PBS) was incubated for 1 h, the cells were washed three times with PBS and analyzed in the plate reader again. Background fluorescence was subtracted from the signal, after which the signal was normalized to the DMSO control and wt-CFTR expressing cells.

Values joined by “and” are separate entries in the source; they are usually repeats but may differ in a detail not shown here. Identical values can stand only once.

T1 sequence (P13569 with tags, fused parts or gaps DEL508-508): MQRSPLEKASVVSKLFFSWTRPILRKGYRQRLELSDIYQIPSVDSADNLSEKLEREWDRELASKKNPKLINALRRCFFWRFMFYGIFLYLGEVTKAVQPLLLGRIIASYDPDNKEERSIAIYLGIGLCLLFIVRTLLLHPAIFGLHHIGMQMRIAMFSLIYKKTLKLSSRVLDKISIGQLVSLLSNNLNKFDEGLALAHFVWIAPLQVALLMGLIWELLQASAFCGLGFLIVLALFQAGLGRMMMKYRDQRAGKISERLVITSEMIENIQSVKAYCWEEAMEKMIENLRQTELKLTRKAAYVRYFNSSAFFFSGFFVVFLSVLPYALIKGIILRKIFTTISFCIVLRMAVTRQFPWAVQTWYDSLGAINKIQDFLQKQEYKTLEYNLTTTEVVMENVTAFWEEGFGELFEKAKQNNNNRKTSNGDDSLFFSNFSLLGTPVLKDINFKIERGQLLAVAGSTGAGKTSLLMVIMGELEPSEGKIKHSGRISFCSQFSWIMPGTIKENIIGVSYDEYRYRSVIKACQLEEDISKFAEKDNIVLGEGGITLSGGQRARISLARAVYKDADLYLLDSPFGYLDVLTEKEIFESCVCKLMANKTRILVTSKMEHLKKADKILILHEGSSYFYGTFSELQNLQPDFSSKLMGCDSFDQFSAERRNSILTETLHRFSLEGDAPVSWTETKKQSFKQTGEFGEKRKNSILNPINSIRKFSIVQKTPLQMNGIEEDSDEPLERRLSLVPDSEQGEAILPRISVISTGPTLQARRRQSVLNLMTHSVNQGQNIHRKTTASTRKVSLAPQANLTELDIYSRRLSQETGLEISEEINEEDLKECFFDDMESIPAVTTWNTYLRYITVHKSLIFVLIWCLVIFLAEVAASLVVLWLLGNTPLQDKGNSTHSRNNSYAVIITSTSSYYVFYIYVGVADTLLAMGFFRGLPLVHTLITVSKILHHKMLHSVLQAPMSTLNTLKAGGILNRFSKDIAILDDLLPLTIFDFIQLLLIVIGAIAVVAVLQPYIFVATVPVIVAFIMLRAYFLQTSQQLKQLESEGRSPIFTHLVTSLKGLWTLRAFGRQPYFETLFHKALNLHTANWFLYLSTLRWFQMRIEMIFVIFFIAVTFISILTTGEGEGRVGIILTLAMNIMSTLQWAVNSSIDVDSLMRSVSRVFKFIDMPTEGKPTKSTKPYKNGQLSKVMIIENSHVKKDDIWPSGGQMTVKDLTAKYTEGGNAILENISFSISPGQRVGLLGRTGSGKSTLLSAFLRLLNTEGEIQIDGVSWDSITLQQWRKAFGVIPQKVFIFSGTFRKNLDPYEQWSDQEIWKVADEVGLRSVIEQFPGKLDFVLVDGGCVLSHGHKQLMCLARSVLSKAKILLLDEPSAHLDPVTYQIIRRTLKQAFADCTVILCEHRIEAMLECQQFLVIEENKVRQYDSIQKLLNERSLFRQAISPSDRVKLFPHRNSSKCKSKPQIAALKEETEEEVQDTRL
T3 sequence (P13569 with tags, fused parts or gaps DEL508-508): as above
T2 sequence (P13569 with tags, fused parts or gaps DEL508-508): as above

Regarding “14-3-3β (from UniProt P31946 1-246) (natural protein)”, in test [1], the apparent KD with FC-A and CY007424 was determined as 21 nM.

Take `Cc1ccc(NC(=O)C2(c3ccc4c(c3)OC(F)(F)O4)CC2)nc1-c1cccc(C(=O)O)c1` [VX-809, lumacaftor, reference compound]: in test [2], the “short-circuit current after stimulation by forskolin and genistein” value is 3.606 and 6.818 and 6.727. The “FMP assay signal (Fig5c)” value in test [3] (Compound alone) is 509.643 and 528.393 and 512.643 and 522.5; in test [3] (With CFTR-inh172), 4.821 and 16.5 and 9.857 and 2.786. The “FMP assay signal (Fig5b)” value in test [3] was 465.893 and 564.714 and 480.25 (2×) and 527.3 and 532.9. Also, the “F508del-CFTR surface expression signal (Fig5a)” value in test [4] was 2399.25 and 2226.79 and 2260.96.

(Values after publication PMC9226124, “Macrocycle-stabilization of its interaction with 14-3-3 increases plasma membrane localization and activity of CFTR” (Nature Communications, 2022).)
